# Source: patent US20170198006A1, “PRMT5 INHIBITORS AND USES THEREOF” (Epizyme, Inc., priority 2014, published 2017)
# How the values were obtained:
# PRMT5/MEP50 = target: T1, PRMT5/MEP50 (Homo sapiens, UniProt O14744); assay: PRMT5 Biochemical Assay (PRMT5/MEP50 enzyme assay on histone H4 peptide substrate, 3H-SAM Flashplate); conditions: PRMT5 biochemical assay; read-out: Biochemical IC50
# T1 construct: Flag-PRMT5; made in house; host or cells: Spodoptera frugiperda (SF9), baculovirus
# Procedure, shortened: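 Sf9-expressed Flag-PRMT5/6His-MEP50 preincubated with compound 30 min at 25 °C, then methylation of biotinylated H4 1-15 peptide started with ³H-SAM in 20 mM Bicine pH 7.6, 1 mM TCEP, 0.005% BSG, 0.002% Tween20.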
# [1] = test system: symmetric di-methyl arginine in Z-138 cells; assay: Z-138 Methylation Assay (In Cell Western for symmetric di-methyl arginine and DNA content); type: cell-based; conditions: Homo sapiens, read-out: ICW EC50
# Description: Z-138 suspension cells were purchased from ATCC (American Type Culture Collection, Manassas, Va.). RPMI/Glutamax medium, penicillin-streptomycin, heat inactivated fetal bovine serum, and D-PBS were purchased from Life Technologies, Grand Island, N.Y., USA. Odyssey blocking buffer, 800CW goat anti-rabbit IgG (H+L) antibody, and Licor Odyssey infrared scanner were purchased from Licor Biosciences, Lincoln, Nebr., USA. Symmetric di-methyl arginine antibody was purchased from EMD Millipore, Billerica, Mass., USA. 16% Paraformaldehyde was purchased from Electron Microscopy Sciences, Hatfield, Pa., USA.
# Z-138 suspension cells were maintained in growth medium (RPMI 1640 supplemented with 10% v/v heat inactivated fetal bovine serum and 100 units/mL penicillin-streptomycin) and cultured at 37° C. under 5% CO2.
# Cell Treatment, in Cell Western (ICW) for Detection of Symmetric Di-Methyl Arginine and DNA Content.
# Z-138 cells were seeded in assay medium at a concentration of 50,000 cells per mL to a 384-well cell culture plate with 50 μL per well. Compound (100 nL) from 384 well source plates was added directly to 384 well cell plate. Plates were incubated at 37° C., 5% CO2 for 96 hours. After four days of incubation, 40 μL of cells from incubated plates were added to poly-D-lysine coated 384 well culture plates (BD Biosciences 356697). Plates were incubated at room temperature for 30 minutes then incubated at 37° C., 5% CO2 for 5 hours. After the incubation, 40 μL per well of 8% paraformaldehyde in PBS (16% paraformaldahyde was diluted to 8% in PBS) was added to each plate and incubated for 30 minutes. Plates were transferred to a Biotek 405 plate washer and washed 5 times with 100 μL per well of wash buffer (1×PBS with 0.1% Triton X-100 (v/v)). Next 30 μL per well of Odyssey blocking buffer were added to each plate and incubated 1 hour at room temperature. Blocking buffer was removed and 20 μL per well of primary antibody was added (symmetric di-methyl arginine diluted 1:100 in Odyssey buffer with 0.1% Tween 20 (v/v)) and plates were incubated overnight (16 hours) at 4° C. Plates were washed 5 times with 100 μL per well of wash buffer. Next 20 μL per well of secondary antibody was added (1:200 800CW goat anti-rabbit IgG (H+L) antibody, 1:1000 DRAQ5 (Biostatus limited) in Odyssey buffer with 0.1% Tween 20 (v/v)) and incubated for 1 hour at room temperature. The plates were washed 5 times with 100 μL per well wash buffer then 1 time with 100 μL per well of water. Plates were allowed to dry at room temperature then imaged on the Licor Odyssey machine which measures integrated intensity at 700 nm and 800 nm wavelengths. Both 700 and 800 channels were scanned.
# First, the ratio for each well was determined by:
# Each plate included fourteen control wells of DMSO only treatment (minimum inhibition) as well as fourteen control wells for maximum inhibition treated with 3 μM of a reference compound (Background wells). The average of the ratio values for each control type was calculated and used to determine the percent inhibition for each test well in the plate. Reference compound was serially diluted three-fold in DMSO for a total of nine test concentrations, beginning at 3 μM. Percent inhibition was determined and IC50 curves were generated using triplicate wells per concentration of compound.
# Z-138 cells = assay: Z-138 Proliferation Assay (Cell Titer Glo, 5 days); type: cell-based; conditions: Homo sapiens, 120 h
# Description: Z-138 Proliferation Assay
# Z-138 suspension cells were purchased from ATCC (American Type Culture Collection, Manassas, Va.). RPMI/Glutamax medium, penicillin-streptomycin, heat inactivated fetal bovine serum were purchased from Life Technologies, Grand Island, N.Y., USA. V-bottom polypropylene 384-well plates were purchased from Greiner Bio-One, Monroe, N.C., USA. Cell culture 384-well white opaque plates were purchased from Perkin Elmer, Waltham, Mass., USA. Cell-Titer Glo® was purchased from Promega Corporation, Madison, Wis., USA. SpectraMax M5 plate reader was purchased from Molecular Devices LLC, Sunnyvale, Calif., USA.
# Z-138 suspension cells were maintained in growth medium (RPMI 1640 supplemented with 10% v/v heat inactivated fetal bovine serum and cultured at 37° C. under 5% CO2. Under assay conditions, cells were incubated in assay medium (RPMI 1640 supplemented with 10% v/v heat inactivated fetal bovine serum and 100 units/mL penicillin-streptomycin) at 37° C. under 5% CO2.
# For the assessment of the effect of compounds on the proliferation of the Z-138 cell line, exponentially growing cells were plated in 384-well white opaque plates at a density of 10,000 cells/ml in a final volume of 50 μl of assay medium. A compound source plate was prepared by performing triplicate nine-point 3-fold serial dilutions in DMSO, beginning at 10 mM (final top concentration of compound in the assay was 20 μM and the DMSO was 0.2%). A 100 nL aliquot from the compound stock plate was added to its respective well in the cell plate. […] After addition of compounds, assay plates were incubated for 5 days at 37° C., 5% CO2, relative humidity >90%.
# Cell viability was measured by quantitation of ATP present in the cell cultures, adding 35 μl of Cell Titer Glo® reagent to the cell plates. Luminescence was read in the SpectraMax M5 microplate reader. The concentration of compound inhibiting cell viability by 50% was determined using a 4-parametric fit of the normalized dose response curves.
# T1 sequence (O14744 with tags, fused parts or gaps): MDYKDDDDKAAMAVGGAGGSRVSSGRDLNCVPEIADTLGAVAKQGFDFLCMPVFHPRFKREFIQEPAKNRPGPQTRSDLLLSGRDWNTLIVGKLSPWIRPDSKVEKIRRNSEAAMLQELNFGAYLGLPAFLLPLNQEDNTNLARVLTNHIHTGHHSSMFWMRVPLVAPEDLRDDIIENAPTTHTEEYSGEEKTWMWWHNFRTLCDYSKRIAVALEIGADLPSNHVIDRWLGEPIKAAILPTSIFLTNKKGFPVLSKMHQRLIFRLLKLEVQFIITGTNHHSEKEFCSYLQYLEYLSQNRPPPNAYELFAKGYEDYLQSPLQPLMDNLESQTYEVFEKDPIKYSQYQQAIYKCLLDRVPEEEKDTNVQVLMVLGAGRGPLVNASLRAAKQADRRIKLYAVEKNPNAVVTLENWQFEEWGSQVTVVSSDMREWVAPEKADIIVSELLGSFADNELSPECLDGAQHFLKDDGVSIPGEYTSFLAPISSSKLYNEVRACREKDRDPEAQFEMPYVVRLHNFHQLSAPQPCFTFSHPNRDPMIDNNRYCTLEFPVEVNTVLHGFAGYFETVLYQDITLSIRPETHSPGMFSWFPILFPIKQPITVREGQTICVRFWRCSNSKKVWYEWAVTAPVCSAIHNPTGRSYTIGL
# T1 sequence (Q9BQA1 with tags, fused parts or gaps partner limits assumed): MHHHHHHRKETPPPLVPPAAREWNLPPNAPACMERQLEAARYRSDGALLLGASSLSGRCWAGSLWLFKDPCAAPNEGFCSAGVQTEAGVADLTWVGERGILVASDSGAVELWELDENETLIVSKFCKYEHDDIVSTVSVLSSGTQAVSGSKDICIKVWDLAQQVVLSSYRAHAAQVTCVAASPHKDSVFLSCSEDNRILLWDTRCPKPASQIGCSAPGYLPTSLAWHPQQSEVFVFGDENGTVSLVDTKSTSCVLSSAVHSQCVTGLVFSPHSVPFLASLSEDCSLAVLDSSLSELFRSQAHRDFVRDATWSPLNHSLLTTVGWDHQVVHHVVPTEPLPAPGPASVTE
SMILES,IC50 (PRMT5/MEP50) [µM],EC50 [1] [µM],EC50 (Z-138 cells) [µM]
O=C(NC[C@H](O)CN1Cc2ccccc2C1)c1cncc(NC2CCOCC2)c1 [Compound 7-11],0.101 to 1,0.101 to 1,1 to 10
Cc1ccccc1N1CC(NS(=O)(=O)c2cccc3c(N(C)C)cccc23)CC1=O (stereo not drawn) [Compound 4-4],0.101 to 1,0.101 to 1,10 to 50
CN(C)c1cccc2c(S(=O)(=O)NCC3CCN(Cc4ccco4)CC3)cccc12 [Compound 3-3],0.101 to 1,1 to 10,10 to 50
CCOc1c(C)cc(S(=O)(=O)NCC2CCN(Cc3cc4cc(OC)ccc4nc3Cl)CC2)cc1C [Compound 15-3],0.101 to 1,> 20,> 20
CC(=O)N1CCC(Nc2cc(C(=O)NC(C)C(O)CN3CCc4ccccc4C3)ccn2)CC1 (stereo not drawn) [Compound 11-9],< 0.1,< 0.1,0.101 to 1
CN1CCC(Nc2ccnc(C(=O)NC[C@H](O)CN3CCc4ccccc4C3)c2)CC1 [Compound 5-9],< 0.1,< 0.1,> 5
CC(=O)N1CC(Nc2cc(C(=O)NC[C@@H](O)CN3CCc4ccccc4C3)ncn2)C1 [Compound 7-9],< 0.1,< 0.1,1 to 10
O=C(NC[C@H](O)CN1Cc2ccccc2C1)c1cc(NC2CNC2)ncn1 [Compound 4-11],0.101 to 1,0.101 to 1,> 1
O=C(CC1NC(N2CCN(Cc3ccccc3)CC2)=NC1=O)Nc1ccc(Cl)cc1 (stereo not drawn) [Compound 22-14],0.101 to 1,> 20,> 20
O=C(NC[C@H](O)CN1Cc2ccccc2C1)c1cc(NC2COC2)nc(N2CCOCC2)n1 [Compound 8-11],< 0.1,< 0.1,1 to 10
NCc1nccn1Cc1cccc(Cl)c1 [Compound 2-13],1 to 10,> 1,> 5
CC(=O)N1CCC(Nc2cc(C(=O)N(C)C[C@H](O)CN3CCc4ccccc4C3)ncn2)CC1 [Compound 9-9],< 0.1,0.101 to 1,0.101 to 1
CN(C)c1cccc2c(S(=O)(=O)NC3CC(=O)N(c4ccccc4)C3)cccc12 (stereo not drawn) [Compound 1-4],0.101 to 1,0.101 to 1,1 to 10
O=C(NC[C@H](O)CN1CCc2ccccc2C1)c1cc(NC2CCN(CC(F)(F)F)CC2)ncn1 [Compound 3-9],< 0.1,< 0.1,0.101 to 1
CN(C)c1cccc2c(S(=O)(=O)NCCC(N)c3ccccc3)cccc12 (stereo not drawn) [Compound 3-7],< 0.1,0.101 to 1,10 to 50
CC1CC(Nc2cccc(C(=O)NC[C@H](O)CN3CCc4ccccc4C3)c2)CC(C)O1 (stereo partly drawn) [Compound 2-9],< 0.1,< 0.1,0.101 to 1
O=C(NC[C@H](O)CN1Cc2ccccc2C1)c1cncc(NC2CCN(CC(F)(F)F)C2)c1 (stereo partly drawn) [Compound 9-11],0.101 to 1,0.101 to 1,> 20

SMILES,IC50 (PRMT5/MEP50) [µM],EC50 [1] [µM],EC50 (Z-138 cells) [µM]
CN(C)c1cccc2c(S(=O)(=O)NC3CC(=O)N(c4ccccc4N)C3)cccc12 (stereo not drawn) [Compound 7-4],< 0.1,< 0.1,1 to 10
CC(=O)c1ccc(NC(=O)CC2NC(N3CCN(Cc4ccccc4)CC3)=NC2=O)cc1 (stereo not drawn) [Compound 3-14],1 to 10,> 20,> 20
"Nc1ncnc2c1ncn2[C@@H]1O[C@H](CSCC[C@@H](N)CO)[C@@H](O)[C@H]1O [Compound 92-1, (2S, 3S, 4R, 5R)-2-((((R)-3-amino-4-hydroxybutyl)thio)methyl)-5-(6-amino-9H-purin-9-yl)tetrahydrofuran-3,4-diol]",< 0.1,1 to 10,10 to 50
CC(=O)N1CC(Nc2cc(C(=O)N(C)C[C@H](O)CN3CCc4ccccc4C3)ncn2)C1 [Compound 8-9],0.101 to 1,< 0.1,1 to 10
CN(C)c1cccc2c(S(=O)(=O)NC3CC(=O)N(c4ccccc4Cl)C3)cccc12 (stereo not drawn) [Compound 8-4],0.101 to 1,1 to 10,10 to 50
O=C(NC[C@H](O)CN1Cc2ccccc2C1)c1cncc(NC2CCN(CC(F)(F)F)CC2)c1 [Compound 6-11],0.101 to 1,0.101 to 1,10 to 50
Cn1cnc2ccc(-c3cccc(OCC(O)CN4CCc5ccccc5C4)c3)cc21 (stereo not drawn) [Compound 23-9],< 0.1,0.101 to 1,> 1
CCOC(=O)c1ccc(NC(=O)CC2NC(N3CCN(c4ccccc4)CC3)=NC2=O)cc1 (stereo not drawn) [Compound 20-14],0.101 to 1,1 to 10,> 20
"CN(C)c1cccc2c(S(=O)(=O)NC[C@@H](N)Cc3ccccc3)cccc12 [Compound 5-7, (S)—N-(2-amino-3-phenylpropyl)-5-(dimethylamino)naphthalene-1-sulfonamide]",< 0.1,0.101 to 1,1 to 10
O=C(NC[C@H](O)CN1Cc2ccccc2C1)c1cc(NC2COC2)ncn1 [Compound 3-11],0.101 to 1,0.101 to 1,10 to 50
CN(C)c1cccc2c(S(=O)(=O)NC3CCN(Cc4ccccc4)C3)cccc12 (stereo not drawn) [Compound 1-5],0.101 to 1,1 to 10,> 20
Cc1ccc(C(=O)CC2NC(N3CCN(c4ccccc4)CC3)=NC2=O)cc1 (stereo not drawn) [Compound 1-14],0.101 to 1,1 to 10,> 20
CC(C)(C)C(=O)N1CCN(c2nc(NC3COC3)cc(C(=O)NC[C@H](O)CN3CCc4ccccc4C3)n2)CC1 [Compound 4-9],< 0.1,< 0.1,< 0.1
"CN(C)c1cccc2c(S(=O)(=O)NC3CN(Cc4ccccc4)C3)cccc12 [Compound 3-5, N-(1-benzylazetidin-3-yl)-5-(dimethylamino)naphthalene-1-sulfonamide]",< 0.1,0.101 to 1,10 to 50
OC(COc1cccc(-c2ccc3ncsc3c2)c1)CN1CCc2ccccc2C1 (stereo not drawn) [Compound 1-9],0.101 to 1,1 to 10,10 to 50
CC(=O)N1CC(Nc2cc(C(=O)NC[C@H](O)CN3Cc4ccccc4C3)ncn2)C1 [Compound 5-11],< 0.1,0.101 to 1,1 to 10
